From publication PMC9675719, “Expedient Synthesis of a Library of Heparan Sulfate‐Like “Head‐to‐Tail” Linked Multimers for Structure and Activity Relationship Studies” (Angewandte Chemie (International Ed. in English), 2022)
Like-named read-outs stand apart in the source and are kept apart here. Blank lines part the entries; values can stand above or below the compound they belong to.

Key:
FGF-2 [1] = biological target: T1, FGF-2 (Homo sapiens, UniProt P09038); parameters: method as in PMID 17066397; settings: glycan microarray, glycan concentration 16 μM; cited from earlier work
T1 sequence (P09038 134-288 limits assumed, species assumed): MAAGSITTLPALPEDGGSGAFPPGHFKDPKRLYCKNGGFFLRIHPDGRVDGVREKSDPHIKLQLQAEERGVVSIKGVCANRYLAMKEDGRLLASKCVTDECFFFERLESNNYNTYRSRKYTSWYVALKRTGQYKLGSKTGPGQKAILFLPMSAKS

FGF-2 [2] = biological target: T1, FGF-2; parameters: method as in PMID 28651046, PMID 24959968; settings: read-out: KD of FGF-2 binding; cited from earlier work
FGF-2 [3] = biological target: T1, FGF-2; assay: Competition SPR assay: inhibition of FGF-2 interaction with immobilized biotinylated heparin; assay type: binding; settings: for IC50: immobilized biotinylated heparin, FGF-2 50 nM, read-out: IC50 (amount of mimetic needed to reduce the FGF-2 binding by 50 %)
Experimental: A competition SPR assay was performed to establish the SAR between the full panel of 27 HS‐like pseudo‐hexasaccharides and FGF‐2 (Figure 4). Biotinylated heparin was immobilized on the biosensor, and the pseudo‐hexasaccharides (10 μM) were mixed with FGF‐2 (50 nM) individually. […] The trend of 33, 33 z and 33 m in the order of decreasing FGF‐2 affinity is consistent with that observed in the direct binding SPR study (Figures 3 and S1). The IC50 values of several disaccharides and pseudo‐tetrasaccharides with FGF‐2 have also been measured. The disaccharides bound weakly with FGF‐2, and the fully sulfated pseudo‐tetrasaccharide gave the strongest binding among the pseudo‐tetrasaccharides tested, which in turn was much weaker than that of the pseudo‐hexasaccharide 33 (Figure S2).
Figure 4 Inhibition of 27 pseudo‐hexasaccharides (33, 33 a–z) on FGF‐2 interaction with heparin through a competition SPR assay. Biotinylated heparin was immobilized on the SPR biosensor. For the control well, FGF‐2 (50 nM) was flown over the sensor and the intensity of the signal due to FGF‐2 binding was set as a reference (100 %). […] Normalized FGF‐2 binding % was calculated based on the following formula: (signal intensity of FGF‐2/pseudo‐hexasaccharide)/(signal intensity of FGF‐2 only)×100 %. […]
FGF-2 was immobilized on sensor chip by primary amine coupling reaction. […] Solutions of various concentrations of pseudo-hexasaccharides 33, 33z, and 33m dissolved in 0.01% Tween 20 PBS buffer were injected over the FGF-2 chip at a flow rate of 30 µL/min, and the responses to binding were recorded .
Aqueous NaCl solution (2.0 M) was employed for regeneration to achieve baseline status after each run. Sensorgrams were evaluated using the Qdat program. […] The KD values were calculated by the Qdat software. […]
Heparin SPR chip was prepared by immobilizing biotinylated heparin on SA sensor chip (Cytiva, Uppsala, Sweden).[13] […] Normalized FGF - 2 binding % was calculated based on the following formula: (signal intensity o f FGF-2/pseudohexasaccharide)/(signal intensity of FGF -2 only) x 100%. […]

FGF-2 [4] = biological target: T1, FGF-2; assay: Direct binding SPR with FGF-2 immobilized on CDH sensor chip
Experimental: The direct binding of FGF‐2 to the HS mimetics was measured by surface plasmon resonance (SPR). FGF‐2 was immobilized on a carboxymethyl dextran high capacity (CDH) sensor chip surface through carbodiimide mediated coupling. O‐/N‐Sulfated (33), O‐sulfated (33 z) and N‐sulfated (33 m) pseudo‐hexasaccharides were selected as analytes in addition to the heparin polysaccharide (MW: 17.2 kDa). […] Seeberger and co‐workers studied the binding of HS hexasaccharides with FGF‐2 through a powerful glycan microarray technology.[36] […] The N‐acetylated, O‐sulfated hexasaccharide 35 gave binding of ≈20 % of that of heparin, while the hexasaccharide 36 having three N‐sulfates only gave the lowest signal (<2%) binding to FGF‐2. The trend of decreasing FGF‐2 affinity from N‐ and O‐sulfated, to O‐sulfated only, to N‐sulfated only sequences of HS hexasaccharides (34, 35, 36) correlates well with those of the pseudo‐hexasaccharides 33, 33 z, and 33 m.
Figure 3 a) The SPR sensorgram of FGF‐2 binding with compound 33. The concentrations of 33 from top to bottom curves were 750 nM, 500 nM, 250 nM, 100 nM, 10 nM, and 1 nM. Each experiment was repeated at least three times with the representative data shown. The vertical line indicates the time when the dissociation process started. b) Table of K D values determined for 33, 33 z, and 33 m through the FGF‐2 SPR binding assay. c) Structures of compounds 35–38.
Measurements of binding constants of pseudo-hexasaccharides 33, 33z, and 33m with FGF-2 […]
FGF-2 was immobilized on sensor chip by primary amine coupling reaction. The surface of a CDH sensor chip (FortéBio, Inc., Molecular Devices, USA) was activated using freshly mixed N-hydroxysuccimide (NHS; 0.05 M) and 1-(3-(dimethylamino)propyl)-ethylcarbodiimide (EDC; 0.2 M) (1/1,v/v) in water, followed by the injection of FGF -2 (50 µg/ml) in PBS buffer. The remaining active esters were quenched by ethanolamine (1.0 M). Solutions of various concentrations of pseudo-hexasaccharides 33, 33z, and 33m dissolved in 0.01% Tween 20 PBS buffer were injected over the FGF-2 chip at a flow rate of 30 µL/min, and the responses to binding were recorded .
Aqueous NaCl solution (2.0 M) was employed for regeneration to achieve baseline status after each run. Sensorgrams were evaluated using the Qdat program. The response data due to association and dissociation were processed in Qdat using a reference surface to correct for any bulk refractive index changes and blank injections for double referencing . The binding profiles were fit globally into a 1:2 interaction model. The KD values were calculated by the Qdat software.
Analysis of the inhibition of pseudo-hexasaccharides on heparin/FGF-2 interaction using […]

[5] = immobilized FGF-2, 1:2 interaction model, read-out: dissociation constant (KD) of binding to FGF-2

SMILES: NCCS(=O)(=O)CCCCCO[C@@H]1O[C@@H](C(=O)O)[C@@H](O[C@H]2O[C@H](COS(=O)(=O)O)[C@@H](O[C@@H]3O[C@@H](C(=O)O)[C@@H](O[C@H]4O[C@H](COS(=O)(=O)O)[C@@H](O[C@@H]5O[C@@H](C(=O)O)[C@@H](O[C@H]6O[C@H](COS(=O)(=O)O)[C@@H](O)[C@H](O)[C@H]6NS(=O)(=O)O)[C@H](O)[C@H]5OS(=O)(=O)O)[C@H](O)[C@H]4NS(=O)(=O)O)[C@H](O)[C@H]3OS(=O)(=O)O)[C@H](O)[C@H]2NS(=O)(=O)O)[C@H](O)[C@H]1OS(=O)(=O)O [compound 34]
- binding to FGF-2 as compared to heparin polysaccharide (FGF-2 [1]): ≈ 60%

SMILES: NCCCCCO[C@H]1O[C@H](COS(=O)(=O)O)[C@@H](O[C@@H]2O[C@@H](C(=O)O)[C@@H](O[C@H]3O[C@H](COS(=O)(=O)O)[C@@H](O[C@@H]4O[C@@H](C(=O)O)[C@@H](O)[C@H](O)[C@H]4O)[C@H](O)[C@H]3NS(=O)(=O)O)[C@H](O)[C@H]2OS(=O)(=O)O)[C@H](O)[C@H]1NS(=O)(=O)O [compound 38]
- Kd (FGF-2 [2]): 1.2 µM

SMILES: CO[C@@H]1O[C@@H](C(=O)O)[C@@H](O[C@H]2O[C@H](COS(=O)(=O)O)[C@@H](O)[C@H](O)[C@H]2NS(=O)(=O)O)[C@H](O)[C@H]1OS(=O)(=O)O [compound 37]
- Kd (FGF-2 [2]): 17.5 µM

- IC50 (FGF-2 [3]): 1.7 µM
- Kd (FGF-2 [4]; [5]): 0.0196 µM
SMILES: CC(=O)NCCO[C@@H]1O[C@@H](C(=O)O)[C@@H](O[C@H]2O[C@H](COS(=O)(=O)O)[C@@H](OCCC(=O)NCCO[C@@H]3O[C@@H](C(=O)O)[C@@H](O[C@H]4O[C@H](COS(=O)(=O)O)[C@@H](OCCC(=O)NCCO[C@@H]5O[C@@H](C(=O)O)[C@@H](O[C@H]6O[C@H](COS(=O)(=O)O)[C@@H](OCCC(=O)O)[C@H](O)[C@H]6NS(=O)(=O)O)[C@H](O)[C@H]5OS(=O)(=O)O)[C@H](O)[C@H]4NS(=O)(=O)O)[C@H](O)[C@H]3OS(=O)(=O)O)[C@H](O)[C@H]2NS(=O)(=O)O)[C@H](O)[C@H]1OS(=O)(=O)O [compound 33]

- IC50 (FGF-2 [3]): ~100 µM
- Kd (FGF-2 [4]; [5]): 0.94 µM
SMILES: CC(=O)NCCO[C@@H]1O[C@@H](C(=O)O)[C@@H](O[C@H]2O[C@H](COS(=O)(=O)O)[C@@H](OCCC(=O)NCCO[C@@H]3O[C@@H](C(=O)O)[C@@H](O[C@H]4O[C@H](COS(=O)(=O)O)[C@@H](OCCC(=O)NCCO[C@@H]5O[C@@H](C(=O)O)[C@@H](O[C@H]6O[C@H](COS(=O)(=O)O)[C@@H](OCCC(=O)O)[C@H](O)[C@H]6NC(C)=O)[C@H](O)[C@H]5OS(=O)(=O)O)[C@H](O)[C@H]4NC(C)=O)[C@H](O)[C@H]3OS(=O)(=O)O)[C@H](O)[C@H]2NC(C)=O)[C@H](O)[C@H]1OS(=O)(=O)O [33 z]

SMILES: CC(=O)N[C@H]1[C@@H](O[C@H]2[C@H](O)[C@@H](OS(=O)(=O)O)[C@H](OCCCCCN)O[C@H]2C(=O)O)O[C@H](COS(=O)(=O)O)[C@@H](O[C@@H]2O[C@@H](C(=O)O)[C@@H](O[C@H]3O[C@H](COS(=O)(=O)O)[C@@H](O[C@@H]4O[C@@H](C(=O)O)[C@@H](O[C@H]5O[C@H](COS(=O)(=O)O)[C@@H](O)[C@H](O)[C@H]5NC(C)=O)[C@H](O)[C@H]4OS(=O)(=O)O)[C@H](O)[C@H]3NC(C)=O)[C@H](O)[C@H]2OS(=O)(=O)O)[C@@H]1O [compound 35]
- binding to FGF-2 as compared to heparin polysaccharide (FGF-2 [1]): ≈ 20%

- inhibition of FGF-2/heparin interaction (in words) (FGF-2 [3]; under the experimental condition): did not exhibit any inhibition
- binding to FGF-2 (in words) (FGF-2 [4]; immobilized FGF-2, at 3 μM): little binding
- Kd (FGF-2 [4]; immobilized FGF-2, value printed in μM under head KD value (nM), read-out: KD value): > 3 µM
SMILES: CC(=O)NCCO[C@@H]1O[C@@H](C(=O)O)[C@@H](O[C@H]2O[C@H](CO)[C@@H](OCCC(=O)NCCO[C@@H]3O[C@@H](C(=O)O)[C@@H](O[C@H]4O[C@H](CO)[C@@H](OCCC(=O)NCCO[C@@H]5O[C@@H](C(=O)O)[C@@H](O[C@H]6O[C@H](CO)[C@@H](OCCC(=O)O)[C@H](O)[C@H]6NS(=O)(=O)O)[C@H](O)[C@H]5O)[C@H](O)[C@H]4NS(=O)(=O)O)[C@H](O)[C@H]3O)[C@H](O)[C@H]2NS(=O)(=O)O)[C@H](O)[C@H]1O [33 m]

SMILES: NCCCCCO[C@@H]1O[C@@H](C(=O)O)[C@@H](O[C@H]2O[C@H](CO)[C@@H](O[C@@H]3O[C@@H](C(=O)O)[C@@H](O[C@H]4O[C@H](CO)[C@@H](O[C@@H]5O[C@@H](C(=O)O)[C@@H](O[C@H]6O[C@H](CO)[C@@H](O)[C@H](O)[C@H]6NS(=O)(=O)O)[C@H](O)[C@H]5O)[C@H](O)[C@H]4NS(=O)(=O)O)[C@H](O)[C@H]3O)[C@H](O)[C@H]2NS(=O)(=O)O)[C@H](O)[C@H]1O [compound 36]
- binding to FGF-2 as compared to heparin polysaccharide (FGF-2 [1]): < 2%
